Data as given in ChEMBL document CHEMBL4177696, “Identification of a diverse synthetic abietane diterpenoid library and insight into the structure-activity relationships for antibacterial activity” (Bioorg Med Chem Lett, 2017).
In brackets after ≈: the same amount, converted by molar mass.

Tests used:
Type in all cases: functional
Staphylococcus aureus = test: Antibacterial activity against Staphylococcus aureus measured after 24 hrs
Bacillus subtilis = test: Antibacterial activity against Bacillus subtilis measured after 24 hrs
Escherichia coli = test: Antibacterial activity against Escherichia coli measured after 24 hrs
Pseudomonas fluorescens = test: Antibacterial activity against Pseudomonas fluorescens measured after 24 hrs

| Structure (SMILES) | MIC (Staphylococcus aureus) | MIC (Bacillus subtilis) | MIC (Escherichia coli) | MIC (Pseudomonas fluorescens) |
| --- | --- | --- | --- | --- |
| CC(C)c1ccc2c(c1)CC[C@H]1[C@](C)(C(=O)O)CCC[C@]21C [DEHYDROABIETIC ACID] | 25 µg/mL (≈ 83.2 µM) | 50 µg/mL (≈ 166 µM) | 75 µg/mL (≈ 250 µM) | 50 µg/mL (≈ 166 µM) |
| CC(C)(C)[Si](C)(C)O[C@@H]1CC[C@]2(C)c3ccccc3CC[C@H]2[C@H]1CO | 100 µg/mL (≈ 277 µM) | 75 µg/mL (≈ 208 µM) | 100 µg/mL (≈ 277 µM) | 75 µg/mL (≈ 208 µM) |
| COC(=O)[C@]1(C)CCC[C@]2(C)c3ccc(C(C)C)c(NC(=O)Cn4cc(CNC(=O)OC(C)(C)C)nn4)c3CC[C@@H]12 | 75 µg/mL (≈ 132 µM) | 50 µg/mL (≈ 88.1 µM) | 100 µg/mL (≈ 176 µM) | 25 µg/mL (≈ 44 µM) |
| C=C1CCC[C@]2(C)c3ccc(C(C)C)c(OC)c3CC[C@@H]12 | 100 µg/mL (≈ 352 µM) | 75 µg/mL (≈ 264 µM) | 100 µg/mL (≈ 352 µM) | 100 µg/mL (≈ 352 µM) |
| COC(=O)[C@]1(C)CCC[C@]2(C)c3ccc(C(C)C)c(OC)c3CC[C@@H]12 | 75 µg/mL (≈ 218 µM) | 75 µg/mL (≈ 218 µM) | 100 µg/mL (≈ 290 µM) | 75 µg/mL (≈ 218 µM) |
| COC(=O)C1=C[C@@H]2CCc3c(ccc(C(C)C)c3OC)[C@@]2(C)CC1 | 50 µg/mL (≈ 152 µM) | 25 µg/mL (≈ 76.1 µM) | 75 µg/mL (≈ 228 µM) | 25 µg/mL (≈ 76.1 µM) |
| COc1c(C(C)C)ccc2c1CC[C@H]1C(=O)CCC[C@]21C | 75 µg/mL (≈ 262 µM) | 100 µg/mL (≈ 349 µM) | 75 µg/mL (≈ 262 µM) | 100 µg/mL (≈ 349 µM) |
| COC(=O)[C@]1(C)CCC[C@@]2(C)[C@H]1CC=C1C=C(C(C)C)CC[C@@H]12 [METHYL ABIETATE] | 50 µg/mL (≈ 158 µM) | 75 µg/mL (≈ 237 µM) | 75 µg/mL (≈ 237 µM) | 50 µg/mL (≈ 158 µM) |
| COC(=O)[C@]1(C)CCC[C@]2(C)c3ccc(C(C)C)c(OC)c3C(=O)C[C@@H]12 | 50 µg/mL (≈ 139 µM) | 50 µg/mL (≈ 139 µM) | 25 µg/mL (≈ 69.7 µM) | 50 µg/mL (≈ 139 µM) |
| COc1c(C(C)C)ccc2c1CC[C@H]1C(=O)C(=C(SC)SC)CC[C@]21CO | 25 µg/mL (≈ 61.5 µM) | 12.5 µg/mL (≈ 30.7 µM) | 3.1 µg/mL (≈ 7.62 µM) | 6.3 µg/mL (≈ 15.5 µM) |
| C[C@]12CC=C3C(=O)OC[C@@H]3[C@@H]1CCc1ccccc12 | 50 µg/mL (≈ 197 µM) | 25 µg/mL (≈ 98.3 µM) | 0.8 µg/mL (≈ 3.15 µM) | 1.6 µg/mL (≈ 6.29 µM) |
| CC(C)C1=CC2=CC[C@@H]3[C@](C)(CCC[C@@]3(C)C(=O)O)[C@H]2CC1 [ABIETIC ACID] | 25 µg/mL (≈ 82.7 µM) | 50 µg/mL (≈ 165 µM) | 50 µg/mL (≈ 165 µM) | 25 µg/mL (≈ 82.7 µM) |
| CC(C)(C)C(=O)OC[C@H]1[C@H](O)CC[C@]2(C)c3ccccc3CC[C@@H]12 | 25 µg/mL (≈ 75.7 µM) | 50 µg/mL (≈ 151 µM) | 25 µg/mL (≈ 75.7 µM) | 25 µg/mL (≈ 75.7 µM) |
| C[C@]12CCC3=C(COC3=O)[C@@H]1CCc1ccccc12 | 100 µg/mL (≈ 393 µM) | 75 µg/mL (≈ 295 µM) | 100 µg/mL (≈ 393 µM) | 75 µg/mL (≈ 295 µM) |
| COc1c(C(C)C)ccc2c1CC=C1C3=C(CCC12C)C(=O)OC3 (single isomer, unassigned) | 75 µg/mL (≈ 231 µM) | 100 µg/mL (≈ 308 µM) | 75 µg/mL (≈ 231 µM) | 100 µg/mL (≈ 308 µM) |

The remaining lines, values ahead:

| MIC (Staphylococcus aureus) | MIC (Bacillus subtilis) | MIC (Escherichia coli) | MIC (Pseudomonas fluorescens) | Structure (SMILES) |
| --- | --- | --- | --- | --- |
| 50 µg/mL (≈ 80.5 µM) | 50 µg/mL (≈ 80.5 µM) | 75 µg/mL (≈ 121 µM) | 75 µg/mL (≈ 121 µM) | COC(=O)[C@]1(C)CCC[C@]2(C)c3ccc(C(C)C)c(NC(=O)Cn4cc(-c5ccc(OCc6ccccc6)cc5)nn4)c3CC[C@@H]12 |
| 12.5 µg/mL (≈ 24 µM) | 6.3 µg/mL (≈ 12.1 µM) | 50 µg/mL (≈ 96 µM) | 6.3 µg/mL (≈ 12.1 µM) | COC(=O)[C@]1(C)CCC[C@]2(C)c3ccc(C(C)C)c(NC(=O)Cn4cc(-c5cccs5)nn4)c3CC[C@@H]12 |
| 25 µg/mL (≈ 48.5 µM) | 12.5 µg/mL (≈ 24.2 µM) | 12.5 µg/mL (≈ 24.2 µM) | 12.5 µg/mL (≈ 24.2 µM) | COC(=O)[C@]1(C)CCC[C@]2(C)c3ccc(C(C)C)c(NC(=O)Cn4cc(-c5ccccn5)nn4)c3CC[C@@H]12 |
| 75 µg/mL (≈ 133 µM) | 50 µg/mL (≈ 88.5 µM) | 25 µg/mL (≈ 44.3 µM) | 25 µg/mL (≈ 44.3 µM) | COC(=O)[C@]1(C)CCC[C@]2(C)c3ccc(C(C)C)c(NC(=O)Cn4cc(-c5ccc6ccccc6c5)nn4)c3CC[C@@H]12 |
| 50 µg/mL (≈ 84.6 µM) | 75 µg/mL (≈ 127 µM) | 25 µg/mL (≈ 42.3 µM) | 50 µg/mL (≈ 84.6 µM) | COC(=O)[C@]1(C)CCC[C@]2(C)c3ccc(C(C)C)c(NC(=O)Cn4cc(-c5ccc(-c6ccccc6)cc5)nn4)c3CC[C@@H]12 |
| 50 µg/mL (≈ 91.1 µM) | 12.5 µg/mL (≈ 22.8 µM) | 12.5 µg/mL (≈ 22.8 µM) | 25 µg/mL (≈ 45.5 µM) | COC(=O)[C@]1(C)CCC[C@]2(C)c3ccc(C(C)C)c(NC(=O)Cn4cc(-c5cccc(Cl)c5)nn4)c3CC[C@@H]12 |
| 25 µg/mL (≈ 42.8 µM) | 25 µg/mL (≈ 42.8 µM) | 25 µg/mL (≈ 42.8 µM) | 50 µg/mL (≈ 85.7 µM) | COC(=O)[C@]1(C)CCC[C@]2(C)c3ccc(C(C)C)c(NC(=O)Cn4cc(-c5cc(Cl)cc(Cl)c5)nn4)c3CC[C@@H]12 |
| 25 µg/mL (≈ 45.9 µM) | 75 µg/mL (≈ 138 µM) | 50 µg/mL (≈ 91.8 µM) | 75 µg/mL (≈ 138 µM) | COC(=O)[C@]1(C)CCC[C@]2(C)c3ccc(C(C)C)c(NC(=O)Cn4cc(C(O)c5ccccc5)nn4)c3CC[C@@H]12 (stereo partly specified) |
| 25 µg/mL (≈ 46.3 µM) | 12.5 µg/mL (≈ 23.2 µM) | 12.5 µg/mL (≈ 23.2 µM) | 25 µg/mL (≈ 46.3 µM) | COC(=O)[C@]1(C)CCC[C@]2(C)c3ccc(C(C)C)c(NC(=O)Cn4cc(-c5ccc(C#N)cc5)nn4)c3CC[C@@H]12 |
